# Laboratory results: patent publication US5593970A, “Heterocyclic anthracycline analogs” (priority 1994, dated 1997)
# Like-named read-outs stand apart in the source and are kept apart here.
# Experiments:
# Experiment in all cases: Microculture tetrazolium assay
# Format in all cases: cell-based
# SKOV3 = tested on: SKOV3
# SKVLB = conditions: for VLB/OV3: IC50 ratio SKVLB/SKOV3; for IC50: SKVLB
# T47D = tested on: T47D
# LOX = tested on: LOX
# HT29 = tested on: HT29
# [1] = Homo sapiens, SK-OV-3, SKOV3, read-out: IC50
# [2] = Homo sapiens, HT-29, HT29, read-out: IC50
Compound,IC50 (SKOV3; [1]),VLB/OV3 (SKVLB),IC50 (SKVLB; read-out: IC50),"IC50 (T47D; Homo sapiens, read-out: IC50)",IC50 (LOX; read-out: IC50),IC50 (HT29; [2]),"IC50 (HT29; Homo sapiens, HT-29, HT29)","IC50 (SKOV3; Homo sapiens, SK-OV-3, SKOV3)",IC50 (SKVLB),IC50 (T47D; Homo sapiens),IC50 (LOX),"IC50 (SKOV3; SKOV3, read-out: IC50)",IC50 (T47D; read-out: IC50),"IC50 (HT29; HT29, read-out: IC50)"
"CC[C@@H]1CC2=C(C(=O)c3cc4ccccc4c(O)c3C2=O)[C@@H](O)O1 (relative stereo) [BCH-1162, (trans)-1,6-Dihydroxy-3-ethyl-1,2,3,4-tetrahydro-(2-oxygen) naphtacene-5,12-dione]",1.16 µM,2.33,2.7 µM,2.57 µM,> 100 µM,4.17 µM,,,,,,,,
"CO[C@H]1S[C@H](C(C)=O)CC2=C1C(=O)c1cc3ccccc3c(O)c1C2=O (relative stereo) [BCH-1164, Trans-3-aceto-1-methoxy-6-hydroxy-1,2,3,4,5,12-hexahydro-2-(sulfur)naphthacene-5,12-dione]",9.36 µM,0.98,9.2 µM,12.2 µM,> 100 µM,,6.97 µM,,,,,,,
"CC[C@@H]1Cc2c(O)c3c(c(O)c2[C@@H](O)O1)C(=O)c1ccccc1C3=O (relative stereo) [BCH-1174, (trans)-6,11-dioxo-3-ethyl-1,5,12-trihydroxy-3,4,5,12-tetrahydroanthraceno-[2,3-c]-pyran]",> 100 µM,,> 100 µM,> 100 µM,> 100 µM,> 100 µM,,,,,,,,
CO[C@H]1O[C@H](C(=O)CP(=O)(OC)OC)CC2=C1C(=O)c1cc3ccccc3c(O)c1C2=O (relative stereo) [BCH-1650],,1.12,,,,,0.629 µM,0.802 µM,0.895 µM,2.44 µM,0.755 µM,,,
C=COC(=O)NCCCO[C@@H]1O[C@@H](C(C)=O)CC2=C1C(=O)c1cc3ccccc3c(O)c1C2=O (relative stereo) [BCH-2036],3.7 µM,3.27,12.1 µM,6.21 µM,5.4 µM,3.38 µM,,,,,,,,
"CC(=O)OCC1(C2CC3=C(C(=O)c4cc5ccccc5c(O)c4C3=O)C(O[C@H]3C[C@H](NC(=O)C(F)(F)F)[C@H](O)[C@H](C)O3)O2)OCCCO1 (single isomer, unassigned) [BCH-747]",21 µM,0.98,20.5 µM,18.1 µM,18.5 µM,15.3 µM,,,,,,,,
"CCOC(=O)C1CC2=C(CO1)C(=O)c1c(c(OC(C)=O)c3ccccc3c1OC(C)=O)C2=O (stereo not shown) [BCH-655, Ethyl[6,11-diacetoxy-B,12-dioxo-3,4,5,12-tetrahydroanthraceno (2,3-c)pyran-3-yl]formate]",> 100 µM,,> 100 µM,> 100 µM,> 100 µM,> 100 µM,,,,,,,,
"CCOC(=O)C1CC2=C(CO1)C(=O)c1c(cc3ccccc3c1OC(C)=O)C2=O (stereo not shown) [BCH-656, Ethyl[11-acetoxy-5,12-dioxo-3,4,5,12-tetrahydro-anthraceno[2,3-c]pyran-3-yl]formate]",76.7 µM,1.08,82.9 µM,65.6 µM,68.9 µM,86.6 µM,,,,,,,,
"CCOC(=O)C1CC2=C(CO1)C(=O)c1cc3ccccc3c(OC(C)=O)c1C2=O (stereo not shown) [BCH-659, Ethyl(6-acetoxy-5,12-dioxo-3,4,5,12-tetrahydroanthraceno[2,3-c]pyran-3-yl)formate]",4.53 µM,0.56,2.54 µM,3.83 µM,4.82 µM,2.36 µM,,,,,,,,
"COCOCC(=O)C1CC2=C(CO1)C(=O)c1c(c(OC(C)=O)c3ccccc3c1OC(C)=O)C2=O (stereo not shown) [BCH-695, 6,11-diacetoxy-3-(2-methoxymethoxy)aceto-1,2,3,4-tetrahydro-(2-oxygen)naphthacene-5,12-dione]",30.8 µM,0.49,15 µM,25.2 µM,21.5 µM,11.4 µM,,,,,,,,
"COCOCC(=O)C1CC2=C(CO1)C(=O)c1cc3ccccc3c(O)c1C2=O (stereo not shown) [BCH-697, 3-(2-methoxymethoxy)aceto-6-hydroxy-1,2,3,4-tetrahydro-(2-oxygen)napthacene-5,12-dione]",15.5 µM,0.68,,13 µM,12.6 µM,6.04 µM,,,10.6 µM,,,,,
"C=CC1CC2=C(C(=O)c3cc4ccccc4c(OC(C)=O)c3C2=O)C(OC)O1 (stereo not shown) [BCH-716, 6-acetoxy-1-methoxy-1,2,3,4-tetrahydro-3-vinyl-(2-oxygen)naphthacene-5,12-dione]",> 100 µM,,85.5 µM,70.3 µM,41.6 µM,> 100 µM,,,,,,,,
"CC(=O)[C@H]1CC2=C(C(=O)c3cc4ccccc4c(O)c3C2=O)[C@H](O[C@H]2C[C@H](NC(=O)C(F)(F)F)[C@H](O)[C@H](C)O2)O1 [BCH-724, (1S',1S,3R)-Methyl-(6-hydroxy-1-(3'-trifluoroacyldaunosamine)-5,12-dioxo-3,4,5,12-tetrahydroanthraceno[2,3-C]pyran-3-yl) ketone]",3.15 µM,0.52,1.64 µM,3.89 µM,1.49 µM,0.727 µM,,,,,,,,
COCOCC(=O)C1CC2=C(C(=O)c3cc4ccccc4c(O)c3C2=O)C(O[C@H]2C[C@H](NC(=O)C(F)(F)F)[C@H](OC(=O)c3ccc([N+](=O)[O-])cc3)[C@H](C)O2)O1 (stereo partly shown) [BCH-732],38.5 µM,,100 µM,100 µM,48 µM,38.4 µM,,,,,,,,
CC(=O)OCC1(C2CC3=C(C(=O)c4c(cc5ccccc5c4OC(C)=O)C3=O)C(O)O2)OCCCO1 (stereo not shown) [BCH-733],,1.62,6.96 µM,,6.07 µM,,,,,,,4.3 µM,5.51 µM,2.01 µM
CC(=O)OCC1(C2CC3=C(C(=O)c4cc5ccccc5c(OC(C)=O)c4C3=O)C(O)O2)OCCCO1 (stereo not shown) [BCH-734],,1.02,8.97 µM,,9.76 µM,,,,,,,8.82 µM,6.41 µM,5.77 µM
CC(=O)OCC1(C2CC3=C(C(=O)c4c(cc5ccccc5c4O)C3=O)C(O[C@H]3C[C@H](NC(=O)C(F)(F)F)[C@H](O)[C@H](C)O3)O2)OCCCO1 (stereo partly shown) [BCH-748],4.9 µM,1.72,8.41 µM,7.73 µM,10.1 µM,5.99 µM,,,,,,,,
CC1(C2CC3=C(CO2)C(=O)c2c(cc4ccccc4c2O)C3=O)OCCCO1 (stereo not shown) [BCH-1108],1.5 µM,1.5,2.31 µM,3.83 µM,100 µM,2.8 µM,,,,,,,,
CC1(C2CC3=C(CO2)C(=O)c2cc4ccccc4c(O)c2C3=O)OCCCO1 (stereo not shown) [BCH-1109],62.3 µM,,100 µM,47.1 µM,76 µM,62.6 µM,,,,,,,,
CC(=O)Oc1c2c(c(O)c3ccccc13)C(=O)C1=C(CC(C3(C)OCCCO3)OC1)C2=O (stereo not shown) [BCH-1110],100 µM,,100 µM,100 µM,100 µM,28.9 µM,,,,,,,,
CC(=O)Oc1c2c(c(O)c3ccccc13)C(=O)C1=C(COC(C3(C)OCCCO3)C1)C2=O (stereo not shown) [BCH-1111],100 µM,,56.3 µM,100 µM,98.5 µM,100 µM,,,,,,,,
CC1(C2CC3=C(CO2)C(=O)c2c(cc4ccccc4c2O)C3=O)OCCO1 (stereo not shown) [BCH-1112],5.16 µM,0.55,2.83 µM,9.09 µM,5.32 µM,5.47 µM,,,,,,,,
CC1(C2Cc3c(O)c4c(c(O)c3CO2)C(=O)c2ccccc2C4=O)OCCO1 (stereo not shown) [BCH-1114],64.6 µM,,100 µM,100 µM,100 µM,68.9 µM,,,,,,,,
CC1(C2Cc3c(O)c4c(c(O)c3CO2)C(=O)c2ccccc2C4=O)OCCCO1 (stereo not shown) [BCH-1115],9.28 µM,1.24,11.5 µM,12.6 µM,7.02 µM,6.25 µM,,,,,,,,
CC(=O)C1Cc2c(O)c3c(c(O)c2C(O)O1)C(=O)c1ccccc1C3=O (stereo not shown) [BCH-1116],26.1 µM,0.82,21.3 µM,11.1 µM,31.3 µM,7.6 µM,,,,,,,,
"CC(=O)[C@H]1CC2=C(C(=O)c3cc4ccccc4c(O)c3C2=O)[C@H](O[C@H]2C[C@H](O)[C@H](O)[C@H](C)O2)O1 [BCH-1123, (1'S,1S,3R)-Methyl-[6-hydroxy-1-(2',3',6'-trideoxy-3',4'-dihydroxy-L-lyxohexopyranose)-5,12-dioxo-3,4,5,12-tetrahydroanthraceno(2,3-C)pyran-3-yl]ketone]",1.41 µM,0.92,1.3 µM,3.84 µM,1.22 µM,0.436 µM,,,,,,,,
"CC(=O)[C@@H]1CC2=C(C(=O)c3cc4ccccc4c(O)c3C2=O)[C@@H](O[C@H]2C[C@H](O)[C@H](O)[C@H](C)O2)O1 [BCH-1124, (1'S,1R,3S)-Methyl-[6-hydroxy-1-(2',3',6'-trideoxy-3',4'-dihydroxy-L-lyxohexopyranose)-5,12-dioxo-2,3,5,12-tetrahydroxyanthraceno(2,3-C)pyran-3-yl]ketone]",4.98 µM,0.44,2.17 µM,6.05 µM,,1.46 µM,,,,,1.88 µM,,,
"C[C@@H]1O[C@@H](O[C@H]2O[C@H](C(=O)COC(=O)C(C)(C)C)CC3=C2C(=O)c2cc4ccccc4c(O)c2C3=O)C[C@H](NC(=O)C(F)(F)F)[C@@H]1O [BCH-1136, (1'S,1R,3S)-1,2,3,4,5,12-hexahydro-6-hydroxy-3-trimethylacetoxyaceto-1-N-trifluoroacetyl-L-daunosamine-(2-oxo)-naphthacene-5,12-dione]",18 µM,1.28,23.1 µM,18.9 µM,12.3 µM,11.5 µM,,,,,,,,
